According to patent US7067633B2, “Targeting cellular entry, cell survival, and pathogenicity by dynein light chain 1/PIN in human cells” (Board of Regents, The University of Texas System, priority 2003, dated 2006):

What was measured:
Type in all cases: cell-based, human
DLC1 = DLC1 protein and mRNA expression; conditions: MCF-7/TAMR1 and Ishikawa cells, 24 h
Procedure: MCF-7/Tam-sen, MCF-7/TAMR1 and Ishikawa cells were treated with E2 (10^−9M) or Tam (10^−9M) for 24 h, and cell lysates were assayed for DLC1 and Pak1 protein expression. […] FIG. 21C: Effect of different periods of E2 treatment and cycloheximide (CHX) and Actinomycin D (ACTD) treatment on the ability of E2 to upregulate DLC1 mRNA in MCF-7 cells.

[1] = tested on: ER transactivation (ERE-luc); assay: ERE-luc transactivation assay
Procedure: MCF-7/DA-Pak1 cells were transfected with ERE-luc, treated with or without Dox for 24 h and then with or without E2 (10^−9M) and/or Tam (10^−8M) for 24 h, and ERE-luc activity was measured. […] FIG. 20D: MCF-7/TAM-Sen and MCF-7/TAMR1 cells were transfected with ERE-luc and treated with E2 or Tam for 24 h and ERE-luc activity was measured. […] FIG. 20L: Ishikawa cells were cotransfected with Pak1 siRNA control or Pak1 siRNA wt and treated with or without Tam (10^−8M) for 24 h and ERE-luc activity was measured.
Ishikawa and MCF-7/TAMR1 cells were transfected with control or Pak1 siRNA for 48 h and then with ERE-luc for 24 h and treated with E2 (10^−9M) for 24 h and ERE-luc activity was measured. […] Ishikawa cells were treated with control or and Pak1 and DLC siRNA for 48 h and then transfected with ERE-luc and treated with Tam (10^−8M) for 24 h and ERE-luc activity was measured.

[2] = tested on: Ishikawa and MCF-7/TAMR1 cells; assay: Growth of Tam-resistant cells (cell number)
Procedure: FIGS. 22A–22F—DLC1 deregulation potentiates ligand-induced growth and anchorage-independence. FIG. 22A: DLC1 upregulation potentiates growth stimulation by E2 in a Tam-insensitive manner. MCF-7/DLC1 cells were treated with or without Dox and then with E2 (10^−9M) or Tam (10^−8M) for 5 days, and the cell number was determined. FIG. 22B: DLC1 upregulation promotes anchorage independence. […] FIG. 22C: DLC1 expression supports optimum growth of Tam-resistant cells. Ishikawa and MCF-7/TAMR1 cells were transfected with control or DLC siRNA for 48 h and then treated with or without Tam (10^−8M) for 96 h, and the cell number was determined. FIG. 22D: DLC1-mediated potentiation of ER transactivation depends on the Pak1 status in Ishikawa and MCF-7/TAMR1 cell lines. Ishikawa and MCF-7/TAMR1 cells were transfected with control or Pak1 siRNA for 48 h and then with ERE-luc for 24 h and treated with E2 (10^−9M) for 24 h and ERE-luc activity was measured. FIG. 22E: Pak1 expression level influences the growth of Tam resistant cells. Ishikawa and MCF-7/TAMR1 cells were treated with control or Pak1 siRNA for 48 h and treated with or without Tam (10^−8M) for 4 days, and cell number was determined. FIG. 22F: Co-downregulation of Pak1 and DLC1 in Tam-resistant cells restores Tam-sensitivity. […]

DLC1-ER interaction = assay: Coimmunoprecipitation of DLC1 with ER
Procedure: In vitro-translated ^35ER were incubated with GST-DLC1, and analyzed by SDS-PAGE and autoradiography. FIG. 13B: Identification of ER domains that interact with DLC1. GST-ER fusion proteins containing different deletion constructs were incubated with in vitro-translated 35S-DLC1 (aa 1-89), and binding was analyzed by GST pull-down assay. FIG. 13C: Mapping of the ER-binding region in DLC1. GST-fusions of various DLC1 deletion constructs were incubated with in vitro-translated ^35S-ER, and binding was analyzed by GST pull-down assay. […] Cell lysates from Ishikawa cells was immunoprecipitated (IP) with anti-ERá mAb and immunoblotted with anti-DLC1 or ER Abs. […] Cell lysates from MCF-7/TAM-sen or Ishikawa cells were treated with Tam (10^−9M) for 24 h, and IP with anti-ERá mAb and immunoblotted with anti-DLC1 or ER Abs. […] MCF-7/DLC1 cells were treated with or without Dox for 24 h and then treated with E2 (10^−9M) or Tam (10^−8M) for 24 h, and IP with anti-ERá mAb and immunoblotted with anti-DLC1 or ER Abs. FIG. 13G: Characterization of MCF-7 cells expressing T7-DLC1-Ser88A mutant under a tetracycline-inducible promoter. […] MCF-7/DLC1 and MCF-7/DLC1-Ser88A cells were treated with or without Dox for 24 h and cell lysates were IP with anti-ERá mAb and blotted with anti-DLC1, ERá and T7 Abs.
To this end, MCF-7 cells expressing a T7-DLC1 mutant in which Ser88 and amino acid 89 were deleted under a tet-inducible promoter (MCF-7/DLC1-1-87 mutant) were generated (FIG. 13G).

ZR 75 cells = assay: Boyden chamber migration assay, NIH3T3 conditioned medium; conditions: stable ZR75 clones
Procedure: FIGS. 4A–4E—Effect of DLC1/PIN expression on cell motility. FIG. 4A: expression of DLC1/PIN in a number of normal and breast cancer cells analyzed by western blot analysis. FIG. 4B: Expression of T7-DLC1/PIN in stable clones analyzed by western blot analysis. FIG. 4C: Effect DLC1/PIN expression on the motility. Migratory potential of DLC1/PIN wild type or DLC1/PIN^del88-89 mutant expressing clones was measured by Boyden chamber assay using NIH3T3 conditioned medium as chemoattractant. Migrated cells were recorded by microscopy. Representative data of three replicate experiments is shown. FIG. 4D: ZR75/RFP-DLC1 cells which stably expressing wild type red florescent-tagged DLC1/PIN protein (RFPDLC1/PIN) was incubated with FITC-dextran beads. After twenty minutes, cells were fixed with methanol and stained for endogenous Pak1 (blue), RFPDLC1/PIN (red) and FITC-dextran (green). An inset containing the cytoplasmic region was blown up to visualize the colocalization of Pak1 and DLC1/PIN on dextran beads. Merged images are presented in the upper right panel, and colocalization of Pak1 with DLC1/PIN can be visualized as white vesicles due to colocalization of pixels from Pak1 (blue), DLC1/PIN (red) and FITC dextran (green). FIG. 4E: ZR75/RFP-DLC1/PIN were transfected with a dominant negative mutant of Pak1 K299RLL (a myc-tagged kinase dead and GTPase binding defective construct of Pak1). […]

Compound: CC/C(=C(\c1ccccc1)c1ccc(OCCN(C)C)cc1)c1ccccc1 [tamoxifen]
- expression of the DLC1 protein (DLC1): robustly upregulated
- inhibitory effects on ERE-luc activity ([1]; Ishikawa cells, both DLC1 and Pak1 knocked down): restored the inhibitory effects
- Pak1-mediated ERE-stimulation ([1]; MCF-7/DA-Pak1 cells): not inhibited
- growth of cells with downregulated DLC ([2]; Tam 96 h): further reduced the growth
- growth of cells with downregulated Pak1 ([2]; Tam 4 days): no further significant effect
- DLC1-ER interaction (DLC1-ER interaction; Ishikawa cells, Tam 24 h): substantially enhanced
- DLC1-ER interaction (DLC1-ER interaction; MCF-7/DLC1 cells with doxycycline): modestly, but reproducibly, increased
- DLC1-ER interaction (DLC1-ER interaction; MCF-7/TAM-Sen cells, Tam 24 h): not

Compound: DLC1/PIN^del 88-89: DLC1/PIN mutant in which Ser88 and amino acid 89 were deleted
- migratory potential (ZR 75 cells): abolished DLC1/PIN mediated increase in the migratory potential
- interaction with ER (DLC1-ER interaction; MCF-7 cells, tet-inducible T7-tagged mutant): failed to detect any interaction
